Results on 15 compounds are retold here after patent US9796733B2, “Imidazo-pyrazine derivatives useful as soluble guanylate cyclase activators” (Merck Sharp & Dohme Corp., priority 2014, dated 2017).

Assay [1] relates to Spontaneously hypertensive rats (SHR). The assay is described as follows: Acute efficacy in spontaneously hypertensive rats (SHR): telemetry blood pressure lowering after a single oral dose. Format: in vivo, rat. The essentials: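 Values are the maximum peak fall in systolic pressure after one oral dose (mpk), computed hourly against baseline from a vehicle dose given the day before. Rats were conscious, male, spontaneously hypertensive, with femoral-aortic telemetry recording 30 s every 10 min, 14 days post-surgery.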

For another assay, the target named is T1, sGC α1/β1 heterodimer (Homo sapiens, UniProt Q02108+Q02153).
T1 construct: expressed in transfected cells; host or cells: CHO-K1 (clone #7, CHO-K1/sGC)
T1 sequence (Q02108 1-690): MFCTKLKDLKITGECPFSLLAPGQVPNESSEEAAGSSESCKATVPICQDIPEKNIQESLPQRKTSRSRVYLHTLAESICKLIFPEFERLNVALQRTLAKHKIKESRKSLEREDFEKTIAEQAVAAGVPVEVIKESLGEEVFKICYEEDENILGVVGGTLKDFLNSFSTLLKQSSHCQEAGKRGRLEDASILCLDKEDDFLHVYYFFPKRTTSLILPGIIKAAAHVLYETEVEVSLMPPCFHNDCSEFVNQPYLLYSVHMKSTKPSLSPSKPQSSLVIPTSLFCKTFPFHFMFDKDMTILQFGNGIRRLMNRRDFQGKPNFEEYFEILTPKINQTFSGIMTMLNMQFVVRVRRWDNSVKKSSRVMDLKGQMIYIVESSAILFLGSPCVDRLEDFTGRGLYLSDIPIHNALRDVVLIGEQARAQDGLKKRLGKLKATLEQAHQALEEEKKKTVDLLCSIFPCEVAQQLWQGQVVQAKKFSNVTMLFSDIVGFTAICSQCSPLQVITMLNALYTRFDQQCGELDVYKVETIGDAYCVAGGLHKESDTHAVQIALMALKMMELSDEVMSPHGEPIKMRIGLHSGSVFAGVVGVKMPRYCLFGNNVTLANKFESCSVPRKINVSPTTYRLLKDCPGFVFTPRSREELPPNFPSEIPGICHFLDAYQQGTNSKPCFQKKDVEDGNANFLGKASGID
T1 sequence (Q02153 1-619): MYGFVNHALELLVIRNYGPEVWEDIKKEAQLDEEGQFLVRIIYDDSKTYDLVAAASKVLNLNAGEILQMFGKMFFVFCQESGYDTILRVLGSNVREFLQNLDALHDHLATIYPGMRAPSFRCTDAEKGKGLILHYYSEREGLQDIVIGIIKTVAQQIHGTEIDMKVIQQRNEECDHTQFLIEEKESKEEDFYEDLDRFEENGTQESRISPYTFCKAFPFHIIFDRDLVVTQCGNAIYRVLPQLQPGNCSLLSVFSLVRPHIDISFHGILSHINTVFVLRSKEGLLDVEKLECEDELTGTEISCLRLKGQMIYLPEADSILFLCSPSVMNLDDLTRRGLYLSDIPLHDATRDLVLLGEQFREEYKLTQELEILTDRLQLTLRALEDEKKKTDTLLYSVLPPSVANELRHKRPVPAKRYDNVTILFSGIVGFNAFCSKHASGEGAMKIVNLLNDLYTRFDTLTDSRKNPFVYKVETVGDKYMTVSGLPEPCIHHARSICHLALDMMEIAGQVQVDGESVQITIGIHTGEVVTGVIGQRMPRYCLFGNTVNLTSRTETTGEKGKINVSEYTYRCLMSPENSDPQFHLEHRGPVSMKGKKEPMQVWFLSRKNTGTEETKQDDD
Nature of the assay: Cell-based sGC functional assay (CASA assay): cGMP generation in CHO-K1/sGC cells, HTRF detection. The note with it: for Emax: CHO-K1, percent activation relative to standard Compound A in CHO-K1/sGC cells, read-out: % Act.; for pEC50: inflection point (IP) of cGMP generation in CHO-K1/sGC cells, 4P fit, activity expressed as percentage of Compound A. The essentials:
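cGMP was quantified by HTRF after 1 hr, 37° C exposure of thawed CHO-K1 cells expressing sGC α1/β1 to compound, with or without 1 μM DETA-NO. IBMX (0.5 mM) blocked cGMP breakdown, and DMSO was 2.5% final. Percent of standard Compound A's maximal cGMP was fitted (4P) for inflection point.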

The structures appear in SMILES notation. pEC50: −log10 of the molar value.

The term pEC50 denotes −log10 of the EC50, conventionally taken in molar units. High values mean a small EC50, low ones a large EC50. For the compound `CC1(c2ccc(F)c(F)c2)C(=O)Nc2nc(-c3cn4ccnc4c(CCC(F)(F)F)n3)nc(N)c21` (stereo not drawn) [Example 183B, 4-amino-5-(3,4-difluorophenyl)-5-methyl-2-(8-(3,3,3-trifluoropropyl)imidazo[1,2-a]pyrazin-6-yl)-5H-pyrrolo[2,3-d]pyrimidin-6(7H)-one], the “Maximum peak decrease of systolic blood pressure (SBP) in SHR, Cat.” value (shortened to “Maximum peak decrease”) in assay [1] (P.O. 1.0 mpk) is on record as “B (Category B=SBP in SHRs 20-40 mmHg)”. Also, on sGC α1/β1 heterodimer, the Emax turned out to be 113% and the pEC50 is 7.21.

Take `CC1(c2ccc(F)cc2)C(=O)Nc2nc(-c3cn4ccnc4c(CCC(F)(F)F)n3)nc(N)c21` (stereo not drawn) [Example 184A, 4-amino-5-(4-fluorophenyl)-5-methyl-2-(8-(3,3,3-trifluoropropyl)imidazo[1,2-a]pyrazin-6-yl)-5H-pyrrolo[2,3-d]pyrimidin-6(7H)-one]: the “Maximum peak decrease” value in assay [1] (P.O. 1.0 mpk) is listed as “B (Category B=SBP in SHRs 20-40 mmHg)”. Besides, at sGC α1/β1 heterodimer, the Emax is 134% and the pEC50 was 6.75.

For the compound `Cc1ccc(C2(C)C(=O)Nc3nc(-c4cn5ccnc5c(CCC(F)(F)F)n4)nc(N)c32)cc1` (stereo not drawn) [Example 185A, 4-amino-5-methyl-5-(p-tolyl)-2-(8-(3,3,3-trifluoropropyl)imidazo[1,2-a]pyrazin-6-yl)-5H-pyrrolo[2,3-d]pyrimidin-6(7H)-one], the “Maximum peak decrease” value in assay [1] (P.O. 3.0 mpk) is recorded as “C (Category C=SBP in SHRs>40 mmHg)”. Besides, on sGC α1/β1 heterodimer, the Emax was determined as 132% and the pEC50 is 6.63.

In the case of `CC1(c2ccc(Cl)c(Cl)c2)C(=O)Nc2nc(-c3cn4ccnc4c(CCC(F)(F)F)n3)nc(N)c21` (stereo not drawn) [Example 186A, 4-amino-5-(3,4-dichlorophenyl)-5-methyl-2-(8-(3,3,3-trifluoropropyl)imidazo[1,2-a]pyrazin-6-yl)-5H-pyrrolo[2,3-d]pyrimidin-6(7H)-one], in assay [1] (P.O. 1.0 mpk), the “Maximum peak decrease” value is reported as “B (Category B=SBP in SHRs 20-40 mmHg)”. Moreover, on sGC α1/β1 heterodimer, the Emax was 129% and the pEC50 is 6.68.

In the case of `CC1(c2ccccc2)C(=O)Nc2nc(-c3cn4ccnc4c(CCC(F)(F)F)n3)nc(N)c21` (stereo not drawn) [Example 188B, 4-amino-5-methyl-5-phenyl-2-(8-(3,3,3-trifluoropropyl)imidazo[1,2-a]pyrazin-6-yl)-5H-pyrrolo[2,3-d]pyrimidin-6(7H)-one], the “Maximum peak decrease” value in assay [1] (P.O. 3.0 mpk) is “B (Category B=SBP in SHRs 20-40 mmHg)”. For the same compound, on sGC α1/β1 heterodimer, the Emax amounted to 154% and the pEC50 was 6.52.

With `CC1(c2ccc(C(F)(F)F)cc2)C(=O)Nc2nc(-c3cn4ccnc4c(CCC(F)(F)F)n3)nc(N)c21` (stereo not drawn) [Example 189B, 4-amino-5-methyl-5-(4-(trifluoromethyl)phenyl)-2-(8-(3,3,3-trifluoropropyl)imidazo[1,2-a]pyrazin-6-yl)-5H-pyrrolo[2,3-d]pyrimidin-6(7H)-one], the “Maximum peak decrease” value in assay [1] (P.O. 3.0 mpk) was “B (Category B=SBP in SHRs 20-40 mmHg)”. Further, on sGC α1/β1 heterodimer, the Emax was 143% and the pEC50 is 6.68.

On to `Nc1nc(-c2cn3ccnc3c(CCC(F)(F)F)n2)nc2c1C(c1ccc(Cl)c(F)c1)(C1CC1)C(=O)N2` (stereo not drawn) [Example 190A, 4-amino-5-(4-chloro-3-fluorophenyl)-5-cyclopropyl-2-(8-(3,3,3-trifluoropropyl)imidazo[1,2-a]pyrazin-6-yl)-5H-pyrrolo[2,3-d]pyrimidin-6(7H)-one], for which the “Maximum peak decrease” value in assay [1] (P.O. 3.0 mpk) is “C (Category C=SBP in SHRs>40 mmHg)”. In addition, on sGC α1/β1 heterodimer, the Emax was 90% and the pEC50 was 6.94.

Regarding `CC1(c2ccc(F)c(Cl)c2)C(=O)Nc2nc(-c3cn4ccnc4c(CCC(F)(F)F)n3)nc(N)c21` (stereo not drawn) [Example 193B, 4-amino-5-(3-chloro-4-fluorophenyl)-5-methyl-2-(8-(3,3,3-trifluoropropyl)imidazo[1,2-a]pyrazin-6-yl)-5H-pyrrolo[2,3-d]pyrimidin-6(7H)-one], in assay [1] (P.O. 3.0 mpk), the “Maximum peak decrease” value is on record as “B (Category B=SBP in SHRs 20-40 mmHg)”. For the same compound, at sGC α1/β1 heterodimer, the Emax was 111% and the pEC50 is 6.45.

As to `Nc1nc(-c2cn3ccnc3c(CCC(F)(F)F)n2)nc2c1C(c1ccc(F)cc1)(C1CC1)C(=O)N2` (stereo not drawn) [Example 194B, 4-amino-5-cyclopropyl-5-(4-fluorophenyl)-2-(8-(3,3,3-trifluoropropyl)imidazo[1,2-a]pyrazin-6-yl)-5H-pyrrolo[2,3-d]pyrimidin-6(7H)-one], the “Maximum peak decrease” value in assay [1] (P.O. 3.0 mpk) is listed as “C (Category C=SBP in SHRs>40 mmHg)”. On sGC α1/β1 heterodimer, the Emax worked out at 116% and the pEC50 was 6.57.

With `CCC1(c2ccc(Br)cc2)C(=O)Nc2nc(-c3cn4ccnc4c(CCC(F)(F)F)n3)nc(N)c21` (stereo not drawn) [Example 197A, 4-amino-5-(4-bromophenyl)-5-ethyl-2-(8-(3,3,3-trifluoropropyl)imidazo[1,2-a]pyrazin-6-yl)-5H-pyrrolo[2,3-d]pyrimidin-6(7H)-one], the “Maximum peak decrease” value in assay [1] (P.O. 3.0 mpk) is “B (Category B=SBP in SHRs 20-40 mmHg)”. In addition, at sGC α1/β1 heterodimer, the Emax worked out at 66% and the pEC50 was 6.79.

Turning to `Nc1nc(-c2cn3ccnc3c(CCC(F)(F)F)n2)nc2c1C(c1ccc(Cl)cc1)(C1CC1)C(=O)N2` (stereo not drawn) [Example 198B, 4-amino-5-(4-chlorophenyl)-5-cyclopropyl-2-(8-(3,3,3-trifluoropropyl)imidazo[1,2-a]pyrazin-6-yl)-5H-pyrrolo[2,3-d]pyrimidin-6(7H)-one], the “Maximum peak decrease” value in assay [1] (P.O. 1.0 mpk) is listed as “B (Category B=SBP in SHRs 20-40 mmHg)”. Besides, at sGC α1/β1 heterodimer, the Emax stood at 112% and the pEC50 was 6.31.

`CCC1(c2ccc(Cl)c(F)c2)C(=O)Nc2nc(-c3cn4ccnc4c(CCC(F)(F)F)n3)nc(N)c21` (stereo not drawn) [Example 199A, 4-amino-5-(4-chloro-3-fluorophenyl)-5-ethyl-2-(8-(3,3,3-trifluoropropyl)imidazo[1,2-a]pyrazin-6-yl)-5H-pyrrolo[2,3-d]pyrimidin-6(7H)-one]: in assay [1] (P.O. 3.0 mpk), the “Maximum peak decrease” value was “B (Category B=SBP in SHRs 20-40 mmHg)”. Moreover, on sGC α1/β1 heterodimer, the Emax is 101% and the pEC50 was 6.26.

Turning to `CC1(c2ccc(Cl)cn2)C(=O)Nc2nc(-c3cn4ccnc4c(CCC(F)(F)F)n3)nc(N)c21` (stereo not drawn) [Example 201A, 4-amino-5-(5-chloropyridin-2-yl)-5-methyl-2-(8-(3,3,3-trifluoropropyl)imidazo[1,2-a]pyrazin-6-yl)-5H-pyrrolo[2,3-d]pyrimidin-6(7H)-one], the “Maximum peak decrease” value in assay [1] (P.O. 3.0 mpk) is given as “C (Category C=SBP in SHRs>40 mmHg)”. On sGC α1/β1 heterodimer, the Emax amounted to 140% and the pEC50 was 6.03.

In the case of `CC1(c2ccc(F)cn2)C(=O)Nc2nc(-c3cn4ccnc4c(CCC(F)(F)F)n3)nc(N)c21` (stereo not drawn) [Example 202B, 4-amino-5-(5-fluoropyridin-2-yl)-5-methyl-2-(8-(3,3,3-trifluoropropyl)imidazo[1,2-a]pyrazin-6-yl)-5H-pyrrolo[2,3-d]pyrimidin-6(7H)-one], in assay [1] (P.O. 3.0 mpk), the “Maximum peak decrease” value was “B (Category B=SBP in SHRs 20-40 mmHg)”. At sGC α1/β1 heterodimer, the Emax turned out to be 91% and the pEC50 was 6.06.

For `Nc1nc(-c2cn3ccnc3c(CCCC(F)(F)F)n2)nc2c1C(c1ccc(F)cc1)(C1CC1)C(=O)N2` (stereo not drawn) [Example 205B, 4-amino-5-cyclopropyl-5-(4-fluorophenyl)-2-(8-(4,4,4-trifluorobutyl)imidazo[1,2-a]pyrazin-6-yl)-5H-pyrrolo[2,3-d]pyrimidin-6(7H)-one], the “Maximum peak decrease” value in assay [1] (P.O. 0.3 mpk) is “C (Category C=SBP in SHRs>40 mmHg)”. For the same compound, on sGC α1/β1 heterodimer, the Emax worked out at 127% and the pEC50 was 7.70.
